This is an account of results in US20160376240A1, “6 Phenyl or 6 Pyridin 3 YL Indazole Derivatives and Methods of Use” (ABBVIE INC., priority 2014, published 2016).

pIC50: −log10 of the molar value.

In general, pIC50 refers to −log10 of the IC50, conventionally taken in molar units. The low end stands for a high IC50, the high end for a low IC50.

In this assay the target is T1, TrkA (Homo sapiens, UniProt P04629).
T1 construct: purchased Invitrogen PV3144
T1 sequence (P04629 33-796): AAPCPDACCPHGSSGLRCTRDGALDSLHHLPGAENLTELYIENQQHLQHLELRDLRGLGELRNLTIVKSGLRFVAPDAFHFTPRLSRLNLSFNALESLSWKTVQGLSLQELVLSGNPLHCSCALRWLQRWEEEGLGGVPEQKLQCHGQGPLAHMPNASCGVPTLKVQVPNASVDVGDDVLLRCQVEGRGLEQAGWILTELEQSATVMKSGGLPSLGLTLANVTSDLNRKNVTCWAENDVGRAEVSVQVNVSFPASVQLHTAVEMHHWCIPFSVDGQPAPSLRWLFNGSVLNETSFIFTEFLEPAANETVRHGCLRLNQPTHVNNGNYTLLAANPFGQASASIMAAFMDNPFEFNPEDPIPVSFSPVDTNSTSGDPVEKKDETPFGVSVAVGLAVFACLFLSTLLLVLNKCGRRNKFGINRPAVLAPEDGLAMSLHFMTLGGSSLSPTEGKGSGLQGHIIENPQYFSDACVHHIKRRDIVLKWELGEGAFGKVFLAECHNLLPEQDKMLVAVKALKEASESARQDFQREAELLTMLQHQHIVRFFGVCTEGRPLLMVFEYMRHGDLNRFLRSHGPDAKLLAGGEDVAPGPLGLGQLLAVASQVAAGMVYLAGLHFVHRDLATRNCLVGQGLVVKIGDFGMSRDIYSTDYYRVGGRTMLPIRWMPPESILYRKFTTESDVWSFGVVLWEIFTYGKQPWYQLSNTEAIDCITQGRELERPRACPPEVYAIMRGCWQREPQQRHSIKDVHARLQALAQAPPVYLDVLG
Description: TrkA kinase inhibition, HTRF assay. To be noted: LCK peptide substrate 125 nM, TrkA 2-10 nM pre-incubated with ATP 200 μM. The format is biochemical. The procedure, abridged:
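TrkA (2-10 nM) preactivated 20 min with 200 μM ATP in HEPES pH 7.4 with Mg2+/Mn2+, then compound for 10 min, then 125 nM biotinylated LCK-peptide for 1 h at ambient temperature. HTRF 665/620 ratio read; IC50 fitted from initial-rate percent inhibition.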
Compound `CCOC(=O)N1CCN(c2cc(-c3cc(OC4CCOCC4)c4c(C)n[nH]c4c3)ccc2C(=O)NC)CC1` [Example 134, ethyl 4-{2-(methylcarbamoyl)-5-[3-methyl-4-(tetrahydro-2H-pyran-4-yloxy)-1H-indazol-6-yl]phenyl}piperazine-1-carboxylate] gave a pIC50 of 7.90.
Compound `CCCOC(=O)N1CCN(c2cc(-c3cc(OC4CCOCC4)c4c(C)n[nH]c4c3)ccc2C(=O)NC)CC1` [Example 135, propyl 4-{2-(methylcarbamoyl)-5-[3-methyl-4-(tetrahydro-2H-pyran-4-yloxy)-1H-indazol-6-yl]phenyl}piperazine-1-carboxylate] showed a pIC50 of 8.08.
With `CNC(=O)c1ccc(-c2cc(OC3CCOCC3)c3c(C)n[nH]c3c2)cc1N1CCN(C(=O)OCC(F)(F)F)CC1` [Example 136, 2,2,2-trifluoroethyl 4-{2-(methylcarbamoyl)-5-[3-methyl-4-(tetrahydro-2H-pyran-4-yloxy)-1H-indazol-6-yl]phenyl}piperazine-1-carboxylate], the pIC50 was 7.74.
With `CNC(=O)c1ccc(-c2cc(OC3CCOCC3)c3c(C)n[nH]c3c2)cc1N1CCN(C(=O)OCC(C)(C)C)CC1` [Example 137, 2,2-dimethylpropyl 4-{2-(methylcarbamoyl)-5-[3-methyl-4-(tetrahydro-2H-pyran-4-yloxy)-1H-indazol-6-yl]phenyl}piperazine-1-carboxylate], the negative-log IC50 (pIC50) was 7.24.
`CNC(=O)c1ccc(-c2cc(OC3CCOCC3)c3c(C)n[nH]c3c2)cc1N1CCN(C(=O)OCCOC)CC1` [Example 138, 2-methoxyethyl 4-{2-(methylcarbamoyl)-5-[3-methyl-4-(tetrahydro-2H-pyran-4-yloxy)-1H-indazol-6-yl]phenyl}piperazine-1-carboxylate] had a negative-log IC50 (pIC50) of 7.60.
The compound `Cc1n[nH]c2cc(-c3ccc(C#N)c(N4CCN(C(=O)OC(C)(C)C)CC4)c3)cc(OC3CCOCC3)c12` [Example 139, tert-butyl 4-{2-cyano-5-[3-methyl-4-(tetrahydro-2H-pyran-4-yloxy)-1H-indazol-6-yl]phenyl}piperazine-1-carboxylate] gave a pIC50 of 8.16.
The value for `Cc1n[nH]c2cc(-c3ccc(C(N)=O)c(N4CCN(C(=O)OC(C)(C)C)CC4)c3)cc(OC3CCOCC3)c12` [Example 140, tert-butyl 4-{2-carbamoyl-5-[3-methyl-4-(tetrahydro-2H-pyran-4-yloxy)-1H-indazol-6-yl]phenyl}piperazine-1-carboxylate] was 7.50; that for `CC(=O)Nc1ccc(-c2cc(OC3CCOCC3)c3c(C)n[nH]c3c2)cc1N1CCN(C(=O)OC(C)(C)C)CC1` [Example 141, tert-butyl 4-{2-acetamido-5-[3-methyl-4-(tetrahydro-2H-pyran-4-yloxy)-1H-indazol-6-yl]phenyl}piperazine-1-carboxylate] was 8.42; that for `Cc1n[nH]c2cc(-c3ccc(C(N)=O)c(N4CCN(C(=O)OC(C)C)CC4)c3)cc(OC3CCOCC3)c12` [Example 142, isopropyl 4-{2-carbamoyl-5-[3-methyl-4-(tetrahydro-2H-pyran-4-yloxy)-1H-indazol-6-yl]phenyl}piperazine-1-carboxylate] was 7.63.
`CNC(=O)c1ccc(-c2cc(OC3CCOCC3)c3c(C)n[nH]c3c2)cc1N1CCN(CC(F)(F)F)CC1` [Example 143, N-methyl-4-[3-methyl-4-(tetrahydro-2H-pyran-4-yloxy)-1H-indazol-6-yl]-2-[4-(2,2,2-trifluoroethyl)piperazin-1-yl]benzamide] had a negative logarithm of the IC50 (pIC50) of 7.02.
As to `CC(=O)Nc1ccc(-c2cc(OC3CCOCC3)c3c(C)n[nH]c3c2)cc1N1CCN(C(=O)C2CCC2)CC1` [Example 144, N-{2-[4-(cyclobutylcarbonyl)piperazin-1-yl]-4-[3-methyl-4-(tetrahydro-2H-pyran-4-yloxy)-1H-indazol-6-yl]phenyl}acetamide], the negative-log IC50 (pIC50) is 7.60. This pIC50 is 0.58 log units higher than that of the compound before.
For `CC(=O)Nc1ccc(-c2cc(OC3CCOCC3)c3c(C)n[nH]c3c2)cc1N1CCN(Cc2ccccc2)CC1` [Example 145, N-{2-(4-benzylpiperazin-1-yl)-4-[3-methyl-4-(tetrahydro-2H-pyran-4-yloxy)-1H-indazol-6-yl]phenyl}acetamide], the pIC50 was 7.90.
In the case of `CC(=O)Nc1ccc(-c2cc(OC3CCOCC3)c3c(C)n[nH]c3c2)cc1N1CCN(C(=O)OC(C)C)CC1` [Example 146, isopropyl 4-{2-acetamido-5-[3-methyl-4-(tetrahydro-2H-pyran-4-yloxy)-1H-indazol-6-yl]phenyl}piperazine-1-carboxylate], the pIC50 is 8.35.
Consider `CC(=O)Nc1ccc(-c2cc(OC3CCOCC3)c3c(C)n[nH]c3c2)cc1OCCNC(=O)OC(C)C` [Example 147, isopropyl (2-{2-acetamido-5-[3-methyl-4-(tetrahydro-2H-pyran-4-yloxy)-1H-indazol-6-yl]phenoxy}ethyl)carbamate], for which the pIC50 was 7.51. This pIC50 lies 0.84 log units lower than the previous one.
`CC(=O)Nc1ccc(-c2cc(OC3CCOCC3)c3c(C)n[nH]c3c2)cc1N1CCN(Cc2cccnc2)CC1` [Example 148, N-{4-[3-methyl-4-(tetrahydro-2H-pyran-4-yloxy)-1H-indazol-6-yl]-2-[4-(pyridin-3-ylmethyl)piperazin-1-yl]phenyl}acetamide] showed a pIC50 of 7.46.
`CC(=O)Nc1ccc(-c2cc(OC3CCOCC3)c3c(C)n[nH]c3c2)cc1N1CCN(Cc2cccc(F)c2)CC1` [Example 149, N-{2-[4-(3-fluorobenzyl)piperazin-1-yl]-4-[3-methyl-4-(tetrahydro-2H-pyran-4-yloxy)-1H-indazol-6-yl]phenyl}acetamide] showed a negative-log IC50 (pIC50) of 7.60. This pIC50 and that of the compound before are within 0.2 log units of each other.
On to `CC(=O)Nc1ccc(-c2cc(OC3CCOCC3)c3c(C)n[nH]c3c2)cc1N1CCN(Cc2ccc(Cl)o2)CC1` [Example 150, N-(2-{4-[(5-chloro-2-furyl)methyl]piperazin-1-yl}-4-[3-methyl-4-(tetrahydro-2H-pyran-4-yloxy)-1H-indazol-6-yl]phenyl)acetamide], for which the negative-log IC50 (pIC50) is 7.13. This pIC50 is 0.47 log units lower than that of the compound before.
The figure for `CC(=O)Nc1ccc(-c2cc(OC3CCOCC3)c3c(C)n[nH]c3c2)cc1N1CCN(C(=O)NC(C)C)CC1` [Example 151, 4-{2-acetamido-5-[3-methyl-4-(tetrahydro-2H-pyran-4-yloxy)-1H-indazol-6-yl]phenyl}-N-isopropylpiperazine-1-carboxamide] is 6.78; for `CNC(=O)c1ccc(-c2cc(OC3CCOCC3)c3c(C)n[nH]c3c2)cc1N1CCN(S(=O)(=O)c2ccc(C)cc2)CC1` [Example 152, N-methyl-2-{4-[(4-methylphenyl)sulfonyl]piperazin-1-yl}-4-[3-methyl-4-(tetrahydro-2H-pyran-4-yloxy)-1H-indazol-6-yl]benzamide] it is 8.13; for `CNC(=O)c1ccc(-c2cc(OC3CCOCC3)c3c(C)n[nH]c3c2)cc1N1CCN(C(=O)OC)CC1` [Example 153, methyl 4-{2-(methylcarbamoyl)-5-[3-methyl-4-(tetrahydro-2H-pyran-4-yloxy)-1H-indazol-6-yl]phenyl}piperazine-1-carboxylate] it is 8.04.
`CNC(=O)c1ccc(-c2cc(OC3CCOCC3)c3c(C)n[nH]c3c2)cc1N1CCN(Cc2cccc(F)c2)CC1` [Example 154, 2-[4-(3-fluorobenzyl)piperazin-1-yl]-N-methyl-4-[3-methyl-4-(tetrahydro-2H-pyran-4-yloxy)-1H-indazol-6-yl]benzamide]: the pIC50 is 7.80. This pIC50 is 0.24 log units lower than that of the compound before.
As for `CNC(=O)c1ccc(-c2cc(OC3CCOCC3)c3c(C)n[nH]c3c2)cc1N1CCN(C(=O)NC(C)C)CC1` [Example 155, N-isopropyl-4-{2-(methylcarbamoyl)-5-[3-methyl-4-(tetrahydro-2H-pyran-4-yloxy)-1H-indazol-6-yl]phenyl}piperazine-1-carboxamide], the negative logarithm of the IC50 (pIC50) was 8.64.
`Cc1n[nH]c2cc(-c3ccc(C#N)c(N4CCN(CC(F)(F)F)CC4)c3)cc(OC3CCOCC3)c12` [Example 156, 4-[3-methyl-4-(tetrahydro-2H-pyran-4-yloxy)-1H-indazol-6-yl]-2-[4-(2,2,2-trifluoroethyl)piperazin-1-yl]benzonitrile]: the negative logarithm of the IC50 (pIC50) was 7.54.
`Cc1n[nH]c2cc(-c3ccc(C(N)=O)c(N4CCN(CC(F)(F)F)CC4)c3)cc(OC3CCOCC3)c12` [Example 157, 4-[3-methyl-4-(tetrahydro-2H-pyran-4-yloxy)-1H-indazol-6-yl]-2-[4-(2,2,2-trifluoroethyl)piperazin-1-yl]benzamide]: the pIC50 was 7.64.
The compound `CCc1n[nH]c2cc(-c3ccc(C(=O)NC)c(N4CCN(C(=O)OC(C)(C)C)CC4)c3)cc(OC3CCOCC3)c12` [Example 158, tert-butyl 4-{5-[3-ethyl-4-(tetrahydro-2H-pyran-4-yloxy)-1H-indazol-6-yl]-2-(methylcarbamoyl)phenyl}piperazine-1-carboxylate] showed a pIC50 of 6.50. This pIC50 is 1.14 log units lower than that of the compound before.
As for `CNC(=O)c1ccc(-c2cc(OC3CCOCC3)c3c(C)n[nH]c3c2)cc1N1CCN(Cc2ccccc2)C(=O)C1` [Example 159, 2-(4-benzyl-3-oxopiperazin-1-yl)-N-methyl-4-[3-methyl-4-(tetrahydro-2H-pyran-4-yloxy)-1H-indazol-6-yl]benzamide], the negative-log IC50 (pIC50) is 7.67.
The figure for `CNC(=O)c1ccc(-c2cc(OC3CCOCC3)c3c(C)n[nH]c3c2)cc1N1CCN(C(=O)CC(C)C)CC1` [Example 160, N-methyl-2-[4-(3-methylbutanoyl)piperazin-1-yl]-4-[3-methyl-4-(tetrahydro-2H-pyran-4-yloxy)-1H-indazol-6-yl]benzamide] is 7.23; for `Cc1n[nH]c2cc(-c3cncc(N4CCN(c5ccccc5)CC4)c3)cc(OC3CCCC3)c12` [Example 161, 4-(cyclopentyloxy)-3-methyl-6-[5-(4-phenylpiperazin-1-yl)pyridin-3-yl]-1H-indazole] it is 7.13; for `Cc1n[nH]c2cc(-c3ccc(NS(C)(=O)=O)c(N4CCN(C(=O)OC(C)(C)C)CC4)c3)cc(OC3CCOCC3)c12` [Example 162, tert-butyl 4-{2-[(methylsulfonyl)amino]-5-[3-methyl-4-(tetrahydro-2H-pyran-4-yloxy)-1H-indazol-6-yl]phenyl}piperazine-1-carboxylate] it is 7.55.
